Our source for the EC50 and Ki values is patent publication US20090221530A1, “Relaxase Modulators and Methods of Using Same” (priority 2005, published 2009).

In test [1] the test system is DNA conjugation from F+ (JS10) cells to F− (JS4) cells. Put plainly: Mating assay (conjugative DNA transfer). It counts as cell-based, E. coli. The settings on record: Escherichia coli, F+ (JS10) donors to F− (JS4) recipients; FIG. 4D; read-out: EC50 of inhibition of DNA conjugation. Here is the method:
Mating assays were performed as described (Matson et al., 2001). Briefly, the donor strain JS10 contains pOX38T, a mini-F-plasmid capable of conjugative transfer, which also carries a Tet resistance gene, while the recipient strain JS4 is F− and Str^r. Donor and recipient strains from saturated overnight cultures grown under antibiotic selection were diluted 1:50 into LB and grown to an OD600 of approximately 0.6 in the absence of selection at 37° C. Donors and recipients were then mixed at a ratio of one donor to nine recipients in the presence of the desired concentrations of pNp (e.g., 10, 100 μM, 1, 10 mM) and incubated at 37° C. for five minutes. Following this incubation, the mating mixtures were diluted 1:10 into LB containing the desired concentration of pNp and incubated for a further 30 minutes. Following mating, the mixtures were vortexed to disrupt mating pairs and serially diluted into 0.9% sterile saline. Dilutions, predicted to result in 300-500 colonies on positive control plates, were plated on LB-agar plates containing both streptomycin and tetracycline in order to select for transconjugants and counter select for donors and unmated recipients. Eight replicate samples of each final dilution were plated, the colony counts culled for outliers at 95% confidence, and then averaged.

A further test concerns the target T1, F plasmid TraI N300 (Escherichia coli, UniProt P14565).
T1 construct: An amino-terminal 300 residue F plasmid TraI construct; made in house; host or cells: E. coli BL21 (DE3)/pLysS or HMS174 (DE3)/pLysS, vector pTYB2
The test is described as follows: Fluorescence kinetic assay of oriT DNA cleavage and crossover by TraI N300. It counts as biochemical, E. coli. As to the method: Reaction Buffer: 6.42 mM MgCl2, 20.5% glycerol, 153.9 mM NaCl, and 51.3 mM Tris-HCl pH 7.5. Streptavidin Wash Buffer (Tris buffered saline, TBS/Tween): and 150 mM NaCl, 25 mM Tris-HCl pH 7.5, and 0.05% Tween-20. Stopping Buffer: 1.2% sodium-dodecyl sulfate (SDS), and 300 mM EDTA pH 10. TE Buffer: 1 mM EDTA, and 10 mM Tris-HCl pH 7.4. Fluorescence Buffer: 80% glycerol, 200 mM Tris-HCl pH 8.0. Short-term N300 stock (for storage at −20° C.): 50% Reaction Buffer, 49.8% glycerol, 0.2% long-term protein solution (84.6 nM final N300 concentration). All 5× stocks except Probe stocks were diluted in Reaction Buffer. 5× Enzyme Stock: 8.4 mL short-term N300 stock diluted to 2.02 nM N300. 5× Inhibitor Stocks: imidodiphosphate (pNp) at 0-50 nM in Reaction Buffer. 5× Substrate Stocks: oligonucleotides b29 and PCb31eco diluted to […] each, by 3-fold serial dilutions. 5× Probe Stocks: […] (1.2-fold molar excess) oligonucleotide downF in TE Buffer. All reactions and procedures involving downF were assembled or performed in darkened conditions. Solutions and microtiter plates containing downF were kept in foil-lined containers at all times to prevent photobleaching.
Two oriT derived oligonucleotides, b29 and PCb31eco, were designed for binding and cleavage by TraI based on past studies (see Oligonucleotides section herein; FIG. 4A). The overall method is modified from those described previously for the study of TraI and R388TrwC (Byrd et al., 2002; Grandoso et al., 2000; Matson and Morton, 1991). Reactions were assembled from 16 μL of 5× Substrate Stock, 16 μL of 5× Inhibitor Stock, and 32 μL of Reaction Buffer. 80 μL reactions were initiated with 16 μL of 5× Enzyme Stock and raised to 37° C. 10 μL samples were removed at eight time points (optimized to define timecourses) and stopped in 10 μL of Stopping Buffer at room temperature. Stopped reactions were placed on a 100° C. heat block for one minute, spiked with 2 μL of 5× Probe Stock while still hot, and incubated at 37° C. for 10 minutes (see Kinetic Assay Formulations for probe handling).
Samples were diluted to […] with Streptavidin Wash Buffer and transferred to Biobind Assembly streptavidin-coated microtiter plates (Thermo Electron Corporation, Waltham, Mass., U.S.A.) and incubated at 37° C. for 45 minutes. Plates were washed with at least 5-fold excess Streptavidin Wash Buffer (in an inverted position to prevent excess biotinylated species from transferring between wells). Wells were filled with 65 μL of Fluorescence Buffer for optimum 6-FAM™ fluorescence. Plates were read in a FLUOSTAR OPTIMA™ (BMG Labtech, Offenburg, Germany) with a 490 nm excitation and 520 nm emission filters (10 nm bandpass) with the gain optimized for maximum signal. The timecourses thus collected were designated Cleavage Courses. Plates were removed and irradiated with 306 nm ultraviolet radiation for 10 minutes to cleave the PC biotin linker. They were then washed inverted with at least 5-fold excess Streptavidin Wash Buffer, filled with 65 μL of Fluorescence Buffer, and again read as above. These timecourses were designated Cleavage+Crossover Courses (FIG. 4A).
All timecourses were fitted by nonlinear regression with un-weighted least-squares methods using SIGMAPLOT™ 8.0 (SYSTAT Software, Inc., Point Richmond, Calif., U.S.A.) (also used for graph construction). Timecourses with blanked signals in arbitrary fluorescence units were scaled by curve mean in groups of at least four replicates, culled for outliers, and averaged by time point. On average, one replicate time point was culled from each group of four used. The averaged curves were fitted to a simple, three-parameter exponential decay equation (Equation 1), time versus signal, and converted into units of concentration.
where t is time in seconds, y0+a is the initial signal, b is a constant that determines the shape of the curve. […]

SMILES strings stand for the structures. Read-outs that look alike come from different tables or passages of the source.

T1 sequence (P14565 1-306): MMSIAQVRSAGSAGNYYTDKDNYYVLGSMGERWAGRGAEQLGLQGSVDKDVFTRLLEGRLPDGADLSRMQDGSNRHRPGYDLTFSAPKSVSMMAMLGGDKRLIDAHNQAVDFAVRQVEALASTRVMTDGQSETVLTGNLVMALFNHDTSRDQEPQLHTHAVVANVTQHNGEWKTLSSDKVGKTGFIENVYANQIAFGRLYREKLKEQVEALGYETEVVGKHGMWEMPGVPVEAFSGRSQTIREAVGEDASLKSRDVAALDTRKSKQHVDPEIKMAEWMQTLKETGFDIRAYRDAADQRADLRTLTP

In the case of `O=P(O)(O)NP(=O)(O)O` [pNp, imidodiphosphate], the EC50 in test [1] was approximately 10000 nM. Besides, the Ki at F plasmid TraI N300 (Cleavage, C-B/E Direct Linear Plot, read-out: Kic) amounted to 2.42 nM; at F plasmid TraI N300 (Cleavage, C-B/E Direct Linear Plot, read-out: Kiu), 2.65 nM; at F plasmid TraI N300 (Cleavage, M/M Nonlinear Regression, competitive inhibition constant, apparent, read-out: Kic), 2.3 ± 0.26 nM; on F plasmid TraI N300 (Cleavage, M/M Nonlinear Regression, uncompetitive inhibition constant, apparent, read-out: Kiu), 3.17 ± 0.32 nM; at F plasmid TraI N300 (Crossover, C-B/E Direct linear Plot, read-out: Kic) it was 1.59 nM; at F plasmid TraI N300 (Crossover, C-B/E Direct linear Plot, read-out: Kiu), 3.24 nM. Moreover, the Ki was 0.885 ± 0.543 nM on F plasmid TraI N300 (Crossover, M/M Nonlinear Regression, read-out: Kic); 2.5 to 3 nM on F plasmid TraI N300 (DNA cleavage, read-out: inhibition constants (Ki values) for both competitive and uncompetitive modes (Kic and Kiu)); 0.9 to 1.6 nM on F plasmid TraI N300 (DNA crossover, read-out: Kic); 3.2 nM at F plasmid TraI N300 (DNA crossover, read-out: Kiu).
